Reference: US20250332266A1, “COMPOUNDS FOR THE DEGRADATION OF EGFR KINASE” (BeiGene Switzerland GmbH, priority 2022, published 2025)

Legend:
[1] = target: EGFR Del19/T790M/C797S (H1975-clone #28) (Homo sapiens, UniProt P00533, T790M/C797S, form not given); assay: EGFR degradation, HTRF total-EGFR assay, H1975-clone #28 (DTC); format: cell-based; conditions: H1975-clone #28 Del19/T790M/C797S, 16 h treatment
Summary of the method: (§1)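 H1975 clones with endogenous EGFR knocked out and homozygous exogenous EGFR mutants (#28 Del19/T790M/C797S; #25 L858R/T790M/C797S) treated 16 h at 37 °C, 8 doses, 5-fold from 10 μM, 0.2% DMSO. Total EGFR measured by HTRF on lysates, normalised to DMSO controls; DC50 and Dmax from curve fit.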

[2] = target: T1, EGFR L858R/T790M/C797S (H1975-clone #25) (Homo sapiens, UniProt P00533, C797S/L858R/T790M); assay: EGFR degradation, HTRF total-EGFR assay, H1975-clone #25 (LTC); format: cell-based; conditions: H1975-clone #25 L858R/T790M/C797S, 16 h treatment
T1 construct: expressed in transfected cells; host or cells: H1975 (clone #25), lentiviral transduction, endogenous EGFR knocked out
Summary of the method: as §1

Molecule	Degradation H1975 # 28 DTC [1]	Degradation H1975 # 25-LTC [2]
Cc1cc2cc(n1)-c1cnn(C)c1OC[C@H]1C[C@@H](CN3/C(=N/C2=O)Nc2ccc(N4C5CCC4CN(C4CCN(c6ccc(C7CCC(=O)NC7=O)nc6C)CC4)C5)cc23)C1 (stereo partly drawn) [Example 127, 3-(5-(4-(8-((7^1s,7^3s,E)-1^1,2^6-dimethyl-3-oxo-5^2,5^3-dihydro-1^1H,5^1H-9-oxa-4-aza-5(2,1)-benzo[d]imidazola-2(2,4)-pyridina-1(4,5)-pyrazola-7(1,3)-cyclobutanacyclononaphane-5^6-yl)-3,8-diazabicyclo[3.2.1]octan-3-yl)piperidin-1-yl)-6-methylpyridin-2-yl)piperidine-2,6-dione]	85.5	96.0
Cc1cc2cc(n1)-c1cnn(C)c1OC[C@H]1C[C@@H](CN3/C(=N/C2=O)Nc2ccc(N4C5CCC4CN(C4CCN(c6cc(F)c([C@H]7CCC(=O)NC7=O)c(F)c6)CC4)C5)cc23)C1 [Example 128, (3R)-3-(4-(4-(8-((7^1s,7^3s,E)-1^1,2^6-dimethyl-3-oxo-5^2,5^3-dihydro-1^1H,5^1H-9-oxa-4-aza-5(2,1)-benzo[d]imidazola-2(2,4)-pyridina-1(4,5)-pyrazola-7(1,3)-cyclobutanacyclononaphane-5^6-yl)-3,8-diazabicyclo[3.2.1]octan-3-yl)piperidin-1-yl)-2,6-difluorophenyl)piperidine-2,6-dione]	75.7	73.7
Cc1cc2cc(n1)-c1cnn(C)c1OC[C@H]1C[C@@H](CN3/C(=N/C2=O)Nc2ccc(N4CCC5(CCN(C6CCN(c7cc(F)c([C@H]8CCC(=O)NC8=O)c(F)c7)CC6)C5)C4)cc23)C1 (stereo partly drawn) [Example 129, (3R)-3-(4-(4-(7-((7^1s,7^3s,E)-1^1,2^6-dimethyl-3-oxo-5^2,5^3-dihydro-1^1H,5^1H-9-oxa-4-aza-5(2,1)-benzo[d]imidazola-2(2,4)-pyridina-1(4,5)-pyrazola-7(1,3)-cyclobutanacyclononaphane-5^6-yl)-2,7-diazaspiro[4.4]nonan-2-yl)piperidin-1-yl)-2,6-difluorophenyl)piperidine-2,6-dione]	73.2	72.7
Cc1cc2cc(n1)-c1cnn(C)c1OC[C@H]1C[C@@H](CN3/C(=N/C2=O)Nc2ccc(N4C5CCC4CN(C4CCN(c6cnc(C7CCC(=O)NC7=O)cc6C)CC4)C5)cc23)C1 (stereo partly drawn) [Example 130, 3-(5-(4-(8-((7^1s,7^3s,E)-1^1,2^6-dimethyl-3-oxo-5^2,5^3-dihydro-1^1H,5^1H-9-oxa-4-aza-5(2,1)-benzo[d]imidazola-2(2,4)-pyridina-1(4,5)-pyrazola-7(1,3)-cyclobutanacyclononaphane-5^6-yl)-3,8-diazabicyclo[3.2.1]octan-3-yl)piperidin-1-yl)-4-methylpyridin-2-yl)piperidine-2,6-dione]	83.4	90.7
Cc1cc2cc(n1)-c1cnn(C)c1OC[C@H]1C[C@@H](CN3/C(=N/C2=O)Nc2ccc(N4CCN(C5CN(C6CCN(c7cnc(C8CCC(=O)NC8=O)cc7C)CC6)C5)CC4)cc23)C1 (stereo partly drawn) [Example 131, 3-(5-(4-(3-(4-((7^1s,7^3s,E)-1^1,2^6-dimethyl-3-oxo-5^2,5^3-dihydro-1^1H,5^1H-9-oxa-4-aza-5(2,1)-benzo[d]imidazola-2(2,4)-pyridina-1(4,5)-pyrazola-7(1,3)-cyclobutanacyclononaphane-5^6-yl)piperazin-1-yl)azetidin-1-yl)piperidin-1-yl)-4-methylpyridin-2-yl)piperidine-2,6-dione]	68.0	84.8
Cc1cc2cc(n1)-c1cnn(C)c1OC[C@H]1C[C@@H](CN3/C(=N/C2=O)Nc2ccc(N4CC5CCC4CN5C4CCN(c5cnc(C6CCC(=O)NC6=O)cc5C)CC4)cc23)C1 (stereo partly drawn) [Example 132, 3-(5-(4-(5-((7^1s,7^3s,E)-1^1,2^6-dimethyl-3-oxo-5^2,5^3-dihydro-1^1H,5^1H-9-oxa-4-aza-5(2,1)-benzo[d]imidazola-2(2,4)-pyridina-1(4,5)-pyrazola-7(1,3)-cyclobutanacyclononaphane-5^6-yl)-2,5-diazabicyclo[2.2.2]octan-2-yl)piperidin-1-yl)-4-methylpyridin-2-yl)piperidine-2,6-dione]	77.3	88.3
(R)-3-(4-(4-(4-((7^1s,7^3s,E)-1^1,2^6-dimethyl-3-oxo-5^2,5^3-dihydro-1^1H,5^1H-9-oxa-4-aza-5(2,1)-benzo[d]imidazola-2(2,4)-pyridina-1(4,5)-pyrazola-7(1,3)-cyclobutanacyclononaphane-5^6-yl)piperazin-1-yl)piperidin-1-yl)-2,6-difluorophenyl)piperidine-2,6-dione [Example 6]	91.2	91.7

Further lines, results first:

Degradation H1975 # 28 DTC [1]	Degradation H1975 # 25-LTC [2]	Molecule
88.8	92.1	Cc1cc2cc(n1)-c1cnn(C)c1OC[C@H]1C[C@@H](CN3/C(=N/C2=O)Nc2ccc(N4CCN([C@@H]5CCN(c6cnc(C7CCC(=O)NC7=O)cc6C)C[C@@H]5F)CC4)cc23)C1 (stereo partly drawn) [Example 133, 3-(5-((3S,4R)-4-(4-((7^1s,7^3S,E)-1^1,2^6-dimethyl-3-oxo-5^2,5^3-dihydro-1^1H,5^1H-9-oxa-4-aza-5(2,1)-benzo[d]imidazola-2(2,4)-pyridina-1(4,5)-pyrazola-7(1,3)-cyclobutanacyclononaphane-5^6-yl)piperazin-1-yl)-3-fluoropiperidin-1-yl)-4-methylpyridin 2-yl)piperidine-2,6-dione]
89.6	92.0	Cc1cc2cc(n1)-c1cnn(C)c1OC[C@H]1C[C@@H](CN3/C(=N/C2=O)Nc2ccc(N4CCN([C@H]5CCN(c6cnc(C7CCC(=O)NC7=O)cc6C)C[C@H]5F)CC4)cc23)C1 (stereo partly drawn) [Example 134, 3-(5-((3R,4S)-4-(4-((7^1s,7^3R,E)-1^1,2^6-dimethyl-3-oxo-5^2,5^3-dihydro-1^1H,5′H-9-oxa-4-aza-5(2,1)-benzo[d]imidazola-2(2,4)-pyridina-1(4,5)-pyrazola-7(1,3)-cyclobutanacyclononaphane-5^6-yl)piperazin-1-yl)-3-fluoropiperidin-1-yl)-4-methylpyridin-2-yl)piperidine-2,6-dione]
85.0	87.0	Cc1cc2cc(n1)-c1cnn(C)c1OC[C@H]1C[C@@H](CN3/C(=N/C2=O)Nc2ccc(N(C)C4CC5(C4)CN(C4CCN(c6cc(F)c(C7CCC(=O)NC7=O)c(F)c6)CC4)C5)cc23)C1 (stereo partly drawn) [Example 136, (R)-3-(4-(4-(6-(((7^1s,7^3s,E)-1^1,2^6-dimethyl-3-oxo-5^2,5^3-dihydro-1^1H,5^1H-9-oxa-4-aza-5(2,1)-benzo[d]imidazola-2(2,4)-pyridina-1(4,5)-pyrazola-7(1,3)-cyclobutanacyclononaphane-5^6-yl)(methyl)amino)-2-azaspiro[3.3]heptan-2-yl)piperidin-1-yl)-2,6-difluorophenyl)piperidine-2,6-dione]
80.2	77.3	Cc1cc2cc(n1)-c1cnn(C)c1OC[C@H]1C[C@@H](CN3/C(=N/C2=O)Nc2ccc(N4CCN(C5CN(C6CCN(c7cc(F)c([C@H]8CCC(=O)NC8=O)c(F)c7)CC6)C5)CC4)cc23)C1 [Example 137, (R)-3-(4-(4-(3-(4-((7^1s,7^3s,E)-1^1,2^6-dimethyl-3-oxo-5^2,5^3-dihydro-1^1H,5^1H-9-oxa-4-aza-5(2,1)-benzo[d]imidazola-2(2,4)-pyridina-1(4,5)-pyrazola-7(1,3)-cyclobutanacyclononaphane-5^6-yl)piperazin-1-yl)azetidin-1-yl)piperidin-1-yl)-2,6-difluorophenyl)piperidine-2,6-dione]
90.9	88.4	Cc1cc2cc(n1)-c1cnn(C)c1OC[C@H]1C[C@@H](CN3/C(=N/C2=O)Nc2ccc(N4CCN([C@@H]5CCN(c6cnc(C7CCC(=O)NC7=O)cc6C)C[C@H]5F)CC4)cc23)C1 (stereo partly drawn) [Example 138, 3-(5-((3R,4R)-4-(4-((7^1s,7^3S,E)-1^1,2^6-dimethyl-3-oxo-5^2,5^3-dihydro-1^1H,5^1H-9-oxa-4-aza-5(2,1)-benzo[d]imidazola-2(2,4)-pyridina-1(4,5)-pyrazola-7(1,3)-cyclobutanacyclononaphane-5^6-yl)piperazin-1-yl)-3-fluoropiperidin-1-yl)-4-methylpyridin-2-yl)piperidine-2,6-dione]
